From US6713051B2, “Antiperspirant or deodorant compositions” (Unilever Home & Personal Care USA division of Conopco, Inc., priority 2001, dated 2004)
Each block holds one compound with its values, some of them ahead of it.

Legend:
[1] = test system: volunteers (volar forearm); assay: Human patch test irritation analysis; assay type: in vivo; details: 0.25% incorporated into the formulation; Wilcoxon signed rank test, 5% level
Method: Patch tests were performed on mixed panel of 50 volunteers with age ranges between 18 and 55, using a double-blinded protocol with randomised patch sites. Samples (20 mg) were applied to a filter paper that was placed within a Finn™ chamber (0.8 cm internal diameter). The chambers were then attached to the volar forearm using Scanpore™ tape (Norgesplater, Nor.) and left for 47 h.

interleukin-6 (IL-6) = assay: Skin organotypic culture analysis: AP-induced IL-6 release into the medium; assay type: cell-based; details: 500 μM in medium, AP formulation topical, 24 h; Dunnet's test p<0.05
Method: (§1) The cultures were then incubated at 37° C., 5% CO2, and 95% relative humidity (standard cell culture conditions) for 24 h. The culture medium was assayed for the pro-inflammatory cytokine interleukin-6 (IL-6) and after washing to remove the AP formulation, the viability of the culture was determined using the Thiazoyl blue (MTT) assay (Mosmann, T. J. Immunol. Methods 65, p55 (1983). IL-6 was determined using an Immunoassay (Quantikine, R&D systems).
(§2) In this Example, skin organotypic cultures (Epiderm™, MatTek, USA) were treated topically with the above-identified AP formulation and the trans-10-cis-12 conjugated linoleic acid (TC CLA) was introduced into the medium. The cultures were then incubated at 37° C., 5% CO2, and 95% relative humidity (standard cell culture conditions) for 24 h. The culture medium was assayed for the pro-inflammatory cytokine interleukin-6 (IL-6) and after washing to remove the AP formulation, the viability of the culture was determined by the method described in Example 2.
as §1, with “hours.” for “h.”, “MTT assay.” for “Thiazoyl blue (MTT) assay (Mosmann, T. J. Immunol. Methods 65, p55 (1983).”, “ELISA assay (R&D” for “Immunoassay (Quantikine, R&D”

[2] = test system: skin organotypic cultures (Epiderm); assay: Viability of skin organotypic cultures (MTT assay); assay type: cell-based
Method: as §1, §2
as §1, with “hours.” for “h.”, “MTT assay.” for “Thiazoyl blue (MTT) assay (Mosmann, T. J. Immunol. Methods 65, p55 (1983).”, “ELISA assay (R&D” for “Immunoassay (Quantikine, R&D”

human PPARα = target: T1, human PPARα (Homo sapiens, UniProt Q07869); assay: PPARα reporter gene assay (firefly luciferase, transiently transfected Cos-7 cells); assay type: cell-based; details: for Result (superior activity class achieved): class reached; for Pass at (lowest tested administration level at which the test material passed): pass = activation greater than oleic acid at 100 μM, commonly >1.57 times vehicle control, 24 h treatment
T1 construct: The coding region of a human PPARα cDNA was inserted downstream of the CMV promoter; expressed in transfected cells; host or cells: Cos-7 cells, transient transfection (pcDNA3.1(−)-PPARα, pRSV-RXRα, 3xPPRE-TK-luc reporter, pRL-TK)
T1 sequence (Q07869 1-468): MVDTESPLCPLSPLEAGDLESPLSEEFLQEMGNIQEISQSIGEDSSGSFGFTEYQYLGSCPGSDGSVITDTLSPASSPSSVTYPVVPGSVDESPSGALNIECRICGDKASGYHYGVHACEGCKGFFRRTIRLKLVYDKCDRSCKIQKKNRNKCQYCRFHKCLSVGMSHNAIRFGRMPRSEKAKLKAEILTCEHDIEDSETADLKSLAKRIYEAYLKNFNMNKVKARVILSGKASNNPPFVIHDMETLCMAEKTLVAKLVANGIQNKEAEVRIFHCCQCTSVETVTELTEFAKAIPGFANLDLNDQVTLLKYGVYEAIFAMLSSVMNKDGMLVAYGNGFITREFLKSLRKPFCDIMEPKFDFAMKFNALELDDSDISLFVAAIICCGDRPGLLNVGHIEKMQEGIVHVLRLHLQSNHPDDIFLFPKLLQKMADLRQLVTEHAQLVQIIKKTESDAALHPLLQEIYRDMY
T1 sequence (P19793 1-462 partner): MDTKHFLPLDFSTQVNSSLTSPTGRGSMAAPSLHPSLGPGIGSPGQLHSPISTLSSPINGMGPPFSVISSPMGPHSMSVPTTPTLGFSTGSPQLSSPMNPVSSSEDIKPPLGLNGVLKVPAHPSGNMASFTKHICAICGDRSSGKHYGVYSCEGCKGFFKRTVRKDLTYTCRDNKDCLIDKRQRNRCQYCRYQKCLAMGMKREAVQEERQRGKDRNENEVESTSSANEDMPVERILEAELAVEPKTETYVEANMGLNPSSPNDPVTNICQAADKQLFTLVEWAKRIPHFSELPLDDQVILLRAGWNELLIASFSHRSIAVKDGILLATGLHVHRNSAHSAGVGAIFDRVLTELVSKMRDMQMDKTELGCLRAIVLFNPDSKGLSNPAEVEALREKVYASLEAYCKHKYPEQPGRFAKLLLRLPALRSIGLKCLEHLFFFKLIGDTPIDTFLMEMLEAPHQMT
From the text: One convenient reporter assay for determining whether a fatty acid material is PPARα activating is based upon the firefly luciferase gene.
Fatty acids were screened to identify PPAR activating fatty acids using a reporter assay.
This assay relied on ligands binding to and activating the PPARα protein, which, in turn, activated genes under the control of PPAR response elements (PPRE). In the assay, the firefly luciferase gene was cloned behind a promoter containing 3 copies of the fatty acid binding protein PPRE.
The assay was performed by transient transfection of Cos-7 cells with a mixture of four DNA plasmids. These were:
1) PPAR reporter gene construct (Modified pNF-KB-luc reporter vector (Firefly luciferase reporter vector commercially available form Clontech (NF-kB response element, TK minimal promoter, luc^+, f1 origin, pUC origin, amp^r)). A tandem repeat of 3 PPAR response elements (PPREs) corresponding to the PPRE found in the fatty acid binding protein promoter was inserted upstream of the minimal TK promoter to replace the NF-κB response element);
2) 2) Over-expressing PPARα construct (Modified pcDNA3.1(−) vector (A mammalian expression vector commercially available from Invitrogen (CMV promoter, f1 origin, SV40 origin, ColE1 origin, neo^r, amp^r)). The coding region of a human PPARα cDNA was inserted downstream of the CMV promoter of pcDNA3.1 (−)). […] The coding region of a human RXRα cDNA has been inserted downstream of the RSV promoter. (Gift of V. K. K. Chatterjee, Addenbrooke's Hospital, Cambridge)) 4) Control luciferase construct (pRL-TK Renilla luciferase reporter vector commercially available from Promega (HSV-TK promoter, T7 promoter, Rluc^+, ori, amp^r)). For the transfection, DNA was made up as a mix of PPAR reporter gene: PPARα: RXRα: control in the ratio 40:4:3:3.
Cos-7 cells were grown in Dulbecco's modified Eagle's Medium, also herein referred to as DMEM with 10% foetal calf serum, herein also referred to as FCS at 37° C., 5% CO2 to 80% confluency. Cells were then plated out in 24 well plates at 50,000 cells per well and incubated overnight in DMEM with 10% FCS at 37° C., 5% CO2. Cells were then transfected using the LipofectAMINE reagent (GibcoBRL). For each well 0.4 μg of DNA mix (in 25 μl of DMEM) was incubated with 1 μl LipofectAMINE (in 25 μl of DMEM) for 45 minutes. The mixture was then made up to 250 μl per well and added to the cells, which had been washed with 1 ml of DMEM. Cells were then incubated for 5 hours at 37° C., 5% CO2 and 250 μl DMEM with 10% SBCS (charcoal stripped bovine calf serum) added. Cells were incubated for 18 hours at 37° C., 5% CO2 before being treated with the appropriate compound/extract. Test compounds were made up as 1000× stocks (in DMSO or ethanol as appropriate) and diluted into DMEM with 10% SBCS (500 μl per well) immediately before being added to cells. Each treatment was performed in triplicate. The transfection mix was removed from the cells and replaced with the treatment mix, and incubated for 24 hours at 37° C., 5% CO2. Cells were washed with 1 ml of PBS (without calcium or magnesium) and then lysed with 100 μl per well of 1× Passive Lysis Buffer (as supplied with Promega Dual Luciferase assay kit). Lysis was allowed to continue for 15 minutes and then the lysate was assayed for Firefly and Renilla luciferase activity using the Promega Dual Luciferase assay kit. For the assay, 20 μl of lysate was taken and assayed as described in the kit instructions using a MLX microtiter™ plate luminometer (Dynex).
Firefly luciferase activity (PPAR driven) was normalised against the Renilla luciferase value for that well and the mean calculated for the three wells treated with the same agent. Activity was then expressed as fold activation over the vehicle (DMSO or ethanol) control values for that particular plate.

[3] = test system: Human foreskin keratinocytes; assay: Keratinocyte proliferation analysis (DNA content per well, Pico Green); assay type: cell-based; details: for keratinocyte DNA synthesis activity, statement: 1 way ANOVA, p<0.05; for DNA: 4 days
Method: (§3) Human foreskin keratinocytes (passage 3) were seeded at 4000 cells/well in 96 well plates in Keratinocyte Growth Medium (abbreviated to KGM) containing 0.03 mM calcium and grown for 3 days at 37° C. The cells were then treated with PPAR ligands in KGM containing 0.03 mM calcium for 4 days prior to harvest. Stock solutions of PPAR ligands were dissolved in dimethylsulphoxide (DMSO) and diluted in KGM before adding to the cells. […] The harvested cells were washed 3× in phosphate buffered saline (PBS) and extracted in 1% Triton X100, 50 mM (tris[hydroxymethyl]aminomethane) (Tris) pH 8.0 plus protease inhibitors pepstatin and leupeptin (100 μl/well). The extract was assayed for DNA content using the Pico Green DNA assay (Molecular Probes, Inc.).
Cultured keratinocytes were treated with cis-9-trans-11 conjugated linoleic acid (CT-CLA) for 4 days. The cells were extracted with Tris-1% Triton X100 and the DNA content per well was determine by the Pico Green assay in accordance with the above described procedure.

[4] = test system: Human foreskin keratinocytes; assay: Keratinocyte cornified envelope assay; assay type: cell-based; details: for Cornified envelopes assay: 4 days, control (0 μM) 22831
Method: as §3
After Tris-triton extraction for TGase assay, the cells were extracted with 100 μl/well of 2% SDS, 20 mM DTT for 16 hours at 60° C. Once extracted the SDS suspension from each well was individually filtered through polyviylidenefluoride (PVDF) membrane (Immobilon-P™ Transfer Membrane, Millipore) which had been pre-blocked in Tris Buffered Saline (TBS) containing 0.5% (v/v) Tween 20, 0.5% using a Dot Blot TM Apparatus (Bio-Rad). Each sample was washed several times with TBS/Tween buffer before the membrane was removed from the apparatus, rinsed in distilled water and silver stained using silver stain kit (Bio-Rad). The stained dot blot membrane was scanned and analysed using Phoretix Array™ software.
Cultured keratinocytes were treated with pinoleic acid for 4 days. The cells were extracted with 2% SDS, 20 mM DTT and the cornified envelopes were quantified, after filtration using a PDVF membrane, by silver staining, as described above.

Transglutaminase (TGase) = assay: Keratinocyte transglutaminase (TGase) assay; assay type: cell-based, human; details: for TGase/ng DNA: 4 days, 30 μM Ca2+, control (0 μM) 16.82
Method: as §3
The remaining cell debris attached to the 96 well plate was incubated with 70 μl/well of TGase assay buffer (50 mM Tris™ pH 8.0, 5 mM DTT, 50 mM CaCl2, 150 mM NaCl, 15 μM Texas Red Cadaverine) and incubated for 16 hours at 37° C. The plates were then washed with distilled water (×2) and the fluorescence due to cross-linked Texas Red cadaverine was determined using excitation at 590 nm and emission of 645 nm.
Cultured keratinocytes were treated with cis-9-trans-11-conjugated linoleic acid (CT-CLA) for 4 days. The cells were extracted with Tris-1% Triton X100™ and the non-extractable TGase activity associated with the cells was determined using Texas Red Cadaverine (in accordance with the methods described above).

SMILES: CCCCCCCCCCC/C=C\CCCCC(=O)O [Petroselinic acid, petroselinic acid]
- mitigation of irritation induced by the prototype pump spray [1]: significantly mitigated
- AP-induced IL-6 release (interleukin-6 (IL-6)): significantly decrease
- Culture viability ([2]; Example 2: AP formulation alone vs AP formulation and petroselinic acid): not significantly different
- Culture viability ([2]; Example 4: AP treatment alone vs AP and acid treatment): not significantly different
- Result at (lowest administration level at which super or MS activity was achieved) (human PPARα): 100 μm
- Result (superior activity class achieved) (human PPARα): MS (more superior activity [MS] (100% higher—at least 3 times PPARα activation))
- Pass at (lowest tested administration level at which the test material passed) (human PPARα): 10 μm

SMILES: CCCCC/C=C\C/C=C\CC/C=C\CCCC(=O)O [Pinolenic acid, pinolenic acid]
- Pass at (lowest tested administration level at which the test material passed) (human PPARα): 10 μm
- keratinocyte DNA synthesis activity, statement ([3]; Example 11: 10 μM): significantly reduce
- DNA ([3]; Table 12: 0.1 μM, control (0 μM) 14.46): 13.41 ng/well
- DNA ([3]; Table 12: 1 μM, control (0 μM) 14.46): 12.95 ng/well
- DNA ([3]; Table 12: 10 μM, control (0 μM) 14.46): 12.63 ng/well
- cornified envelope formation, statement ([4]; Example 8: 10 μM, 1 way ANOVA, p<0.05): significantly increase
- Cornified envelopes assay ([4]; Table 9: 0.1 μM): 18828 arb. Units
- Cornified envelopes assay ([4]; Table 9: 1 μM): 24860 arb. Units
- Cornified envelopes assay ([4]; Table 9: 10 μM): 36579 arb. Units

- Result at (lowest administration level at which super or MS activity was achieved) (human PPARα): 25 μm
- Pass at (lowest tested administration level at which the test material passed) (human PPARα): 10 μm
- TGase/ng DNA (Transglutaminase (TGase); 0.1 μM): 18.30
- TGase/ng DNA (Transglutaminase (TGase); 1 μM): 18.46
- TGase/ng DNA (Transglutaminase (TGase); 10 μM): 28.07
- keratinocyte TGase activity, statement (Transglutaminase (TGase); 1 way ANOVA, p<0.05): significantly increase
SMILES: CCCCCC/C=C/C=C\CCCCCCCC(=O)O [CLA (c9, t11), cis-9-trans-11 conjugated linoleic acid]
- Result (superior activity class achieved) (human PPARα): super (superior activity [super] (50% higher—at least 2.25 times PPARα activation))
- keratinocyte DNA synthesis activity, statement ([3]; Example 10: 10 μM): significantly reduce
- DNA ([3]; Table 11: 0.1 μM, control (0 μM) 92.17): 81.83 ng/well
- DNA ([3]; Table 11: 1 μM, control (0 μM) 92.17): 81.33 ng/well
- DNA ([3]; Table 11: 10 μM, control (0 μM) 92.17): 59.50 ng/well
